According to patent US20140343095A1, “Methods of Diagnosing and Treating Multiple Sclerosis” (The Brigham and Women's Hospital, Inc., priority 2009, published 2014):
“Also recorded” adds a separate entry of the source.

Tests used:
PARP-1 [1] = target: T1, PARP-1 (Homo sapiens, UniProt P09874); conditions: Diestel et al. 2003; cited from earlier work
Target sequence in this assay (P09874 whole entry, species assumed): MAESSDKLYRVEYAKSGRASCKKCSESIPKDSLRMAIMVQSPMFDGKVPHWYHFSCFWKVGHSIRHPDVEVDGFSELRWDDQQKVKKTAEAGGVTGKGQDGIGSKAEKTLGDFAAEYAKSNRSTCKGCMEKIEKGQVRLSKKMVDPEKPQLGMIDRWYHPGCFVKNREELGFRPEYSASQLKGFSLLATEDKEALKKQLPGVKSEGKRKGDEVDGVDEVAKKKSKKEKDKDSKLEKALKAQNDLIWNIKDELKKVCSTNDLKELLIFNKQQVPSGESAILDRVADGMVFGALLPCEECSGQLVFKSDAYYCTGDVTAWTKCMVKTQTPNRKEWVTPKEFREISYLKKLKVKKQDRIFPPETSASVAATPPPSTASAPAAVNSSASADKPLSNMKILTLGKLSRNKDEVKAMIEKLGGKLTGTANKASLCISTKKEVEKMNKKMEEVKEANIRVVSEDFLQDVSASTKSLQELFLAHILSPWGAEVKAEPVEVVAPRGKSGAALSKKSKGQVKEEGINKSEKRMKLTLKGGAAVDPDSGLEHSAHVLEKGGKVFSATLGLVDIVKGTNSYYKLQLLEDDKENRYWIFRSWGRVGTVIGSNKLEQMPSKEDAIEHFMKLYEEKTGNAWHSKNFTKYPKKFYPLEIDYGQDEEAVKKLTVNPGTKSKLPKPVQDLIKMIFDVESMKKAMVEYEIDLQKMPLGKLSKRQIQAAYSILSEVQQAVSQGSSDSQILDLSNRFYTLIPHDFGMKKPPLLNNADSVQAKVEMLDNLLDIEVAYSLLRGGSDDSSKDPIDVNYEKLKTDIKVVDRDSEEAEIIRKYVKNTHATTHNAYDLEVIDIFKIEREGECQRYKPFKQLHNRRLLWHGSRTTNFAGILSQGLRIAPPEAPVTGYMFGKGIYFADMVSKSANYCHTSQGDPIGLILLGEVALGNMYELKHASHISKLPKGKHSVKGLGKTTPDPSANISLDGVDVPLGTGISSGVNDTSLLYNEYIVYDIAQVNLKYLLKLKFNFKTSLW

PARP-1 [2] = target: T2, PARP-1 (Mus musculus, UniProt P11103); assay: Cellular PARP-1 activity in microglia, macrophages or astrocytes; type: cell-based; design: host or cells: C8B4 microglia, C8-D1A astrocytes, Raw 264.7 macrophages
Description: 5A, a bar graph showing the time course of microglial PARP-1 activation by 15-oxysterols or 7-KC. PARP-1 activity is shown as Mean±SEM. […] (Mean±SEM) 5C, a bar graph showing activation of microglial PARP-1 by 15-HC in the presence of kinase inhibitors (Mean±SEM).
6A, a set of three bar graphs showing PARP-1 activity in microglia, macrophages or astrocytes activated with 15-HC in the presence of blocking antibodies to TLR2 or TLR4, or isotype controls (Mean±SEM).
PARP-1 activity was measured using PARP HT Universal Colorimetric Kit (Trevigen, MD, USA), following manufacturer instructions.
Cells were cultured with DMEM supplemented with 10% fetal bovine serum, 2 mM L-glutamine, 25 mM HEPES, and 1 mM sodium pyruvate. Cells in logarithmic growth were treated with 1 μg/ml of 15-HC for 1, 5, 15, and 30 minutes in serum-free medium. Blocking antibodies (Ebioscience, San Diego, Calif., USA) were added in some experiments at a final concentration of 10 ug/ml.

[3] = test system: NOD mice (experimental SPMS); assay: NOD experimental model of SPMS (MOG35-55 EAE), clinical score and spinal cord histology; type: in vivo, mouse
Description: 2A, a line graph showing the results of AIQ treatment when experimental SPMS was induced in ten-week old NOD mice by subcutaneous immunization with […] of MOG35-55 in CFA and Pertussis toxin (150 ng per mouse) given at the time of immunization and 48 hours later. AIQ (3 mg/Kg body weight) was given daily beginning on day 0, n=10 animals per group. A control group was treated with PBS. 2B, a pair of line graphs showing the results of regression analysis of EAE progression (top panel—acute phase, bottom panel—chronic phase). 2C, four images from histopathological analysis of EAE in NOD mice.
This experimental model of SPMS was used to analyze the levels of 15-oxysterols at peak of the acute EAE attack (day 18) and during the progressive phase of EAE (day 55).
150 ng/mouse of pertussis toxin (Sigma) were administered intraperitoneally on days 0 and 2. Clinical signs of EAE were assessed according to the following score: 0, no signs of disease; 1, loss of tone in the tail; 2, hind limb paresis; 3, hind limb paralysis; 4, tetraplegia; 5, moribund.
Image analysis was performed using the software ImageJ (NIH).

splenocytes = assay: Adaptive encephalitogenic recall response of splenocytes from treated mice (proliferation, cytokines); type: in vivo, mouse; conditions: AIQ vs control-treated mice
Description: FIG. 7 is a set of eight bar graphs showing that the adaptive encephalitogenic immune response is not affected by the inhibition of PARP-1. Splenocytes prepared from control or AIQ-treated mice were activated in vitro with MOG35-55 (right column) or antibodies to CD3 (left column) and the cytokines levels were tested on the supernatant at 48 hours. Top row, IFN-gamma Second row, IL-17. Third row, IL-10. Bottom row, TGF-beta.
Splenocytes and lymph node cells were cultured in X-VIVO medium and plated at 5×10^5 cells per well in the presence of MOG35-55 for 72 hours. During the last 16 hours, cells were pulsed with 1 μCi of [^3H]-thymidine (PerkinElmer) followed by harvesting on glass fiber filters and analysis of incorporated [^3H]-thymidine in a beta-counter (1450 Microbeta, Trilux; PerkinElmer). Supernatants were collect after 48 h of culture for cytokine measurements by ELISA.

[4] = test system: microglia, macrophages or astrocytes; assay: TNF-α, CCL-2 and NO secretion by microglia, macrophages or astrocytes; type: cell-based, mouse; conditions: co-incubation with 15-HC
Description: FIGS. 4A-D show the results of activation of microglia, macrophages and astrocytes by 15-HC. 4A, a bar graph showing PARP-1 activity in a cell-free system where recombinant PARP-1 was incubated with DNA which as been pretreated with 15-HC or 7-KC. Non-pretreated DNA was used as a negative control and ssb-DNA as a positive control. Data is shown as Mean±SEM. 4B, a pair of bar graphs showing PARP-1 activity measured in microglia, macrophages or astrocytes incubated with 15-HC or 7-KC. The data is shown as the fold of change between vehicle and lipid-treated cells (Mean±SEM). 4C, a pair of bar graphs showing percent inhibition of PARP-1 activity in microglia, macrophages or astrocytes activated with 15-HC or 7-KC […] in the presence of 5-AIQ. 4D, a table showing levels of TNF-α, CCL-2 and NO secretion by 15-HC or 7-KC treated microglia, macrophages or astrocytes (Mean±SEM).
The effect of 15-HC on the activity of cellular PARP-1 was then investigated. […] Thus, 15-HC activates microglia, macrophages and astrocytes through a PARP-1-dependent mechanism.

PARP-1 [5] = target: T2, PARP-1
Description: Microglia and astrocyte activation have been linked to the progressive phase of experimental SPMS (Basso et al., J Clin Invest 118, 1532-1543 (2008)), thus the activation of PARP-1 was analyzed in the CNS of NOD mice during the progressive phase of EAE.
Spinal cord tissue samples from MOG-immunized NOD mice with or without AIQ treatment were collected at day 55, fixed in 4% paraformaldehyde, cryoprotected in 20% sucrose, and frozen in OCT. Spinal cord frozen sections were cut at 10 μm and processed for histological analysis, immunohistochemistry, or immunofluorescence. […] For image analysis, 3 or 4 lumbar spinal cord sections were selected according to regional landmarks from 4 different animals per group. Image analysis was performed using the software ImageJ (NIH). For quantification, level of labeling “threshold” was used as a cut-off to determine positive or negative staining Immunofluorescence was performed using anti-Iba-1 (Wako, VA, USA), anti-GFAP (BD Bioscience, MA, USA) and anti PAR (Trevigen, MD, USA)

PARP-1 [6] = target: T1, PARP-1; assay: PARP-1 enzymatic activity in human PBMCs (PARP HT Universal Colorimetric Kit); type: cell-based; design: endogenous in cells; host or cells: human PBMCs / monocytes / dendritic cells / T and B cells from healthy controls and MS patients; conditions: healthy controls, 1 ug/ml 15-HC
Description: PARP-1 enzymatic activity (10A) and TNFalpha and CCL2 (10B) of PBMCs incubated with 15-HC alone, or in combination with AIQ, blocking antibodies to TLR2 or IC control.
To investigate whether the TLR2/PARP-1 axis is functional in human we activated PBMCs from healthy controls with 15-HC, in the presence or not of PARP-1 or TLR2 inhibitors.
Target sequence in this assay (P09874 whole entry): as the sequence (P09874 whole entry, species assumed) above

PARP-1 [7] = target: T1, PARP-1; assay: FACS-based detection of PARP-1 activity (PAR staining) in human monocytes / PBMCs; type: cell-based; design: endogenous in cells; host or cells: human PBMCs / monocytes / dendritic cells / T and B cells from healthy controls and MS patients; conditions: human monocytes activated by 15-HC
Description: FIGS. 11A-B are show the results of FACS-based detection of PARP-1 activity. 11A. a set of five histograms showing PAR staining (as detected by FACS) of PBMCs incubated with 15-HC alone, or in combination with AIQ, blocking antibodies to TLR2 (TLR2 BL), or IC control (TLR2 IC). 11B, a line graph showing the correlation of PAR staining as detected by FACS with PARP-1 enzymatic activity detected on PBMCs activated with different concentration of 15-HC.
14A is a set of fifteen histograms showing PAR staining of PBMCs taken from HC (left column), RRMS (center column) or SPMS (right column) patients and unstimulated (top row) or activated with 15-HC alone (second row), or in combination with AIQ (third row), blocking antibodies to TLR2 (fourth row) or IC control (bottom row). 14B is a bar graph showing the mean fluorescence intensity (MFI)±SD of 5 samples/group from the histograms in 14A.
15A is a set of 24 histograms showing PAR staining of PBMCs taken from HC (left column), RRMS (center column) or SPMS (right column) patients and unstimulated (top row) or activated with pgLPS (second row), polyIC (third row), ecLPS (fourth row), flagellin (row 5), imiquimod (row 6), ssRNA (row 7) or CpG (row 8). 15B is a bar graph showing the mean fluorescence intensity (MFI)±SD of 5 samples/group from the histograms in […].
A new FACS-based method was developed to detect PARP-1 activation based on the intracellular detection of the PARP-1 product PAR with specific antibodies. Briefly, the cells were incubated with antibodies to CD16/32 to block unspecific antibody binding, and then stained for surface markers. After washing, the cells were permeabilized with Fix/Perm (BD), and then stained with rabbit anti-PAR antibodies (or control rabbit IgG) for 30′ at 4° C., followed by anti-rabbit PE for 30′ at room temperature. The samples were then analyzed by FACS.
Target sequence in this assay (P09874 whole entry): as the sequence (P09874 whole entry, species assumed) above

[8] = NOD mice, AIQ 3 mg/Kg body weight daily from day 0, vs PBS
[9] = spinal cord sections, day 55, progressive phase of NOD EAE

T2 sequence (P11103 whole entry): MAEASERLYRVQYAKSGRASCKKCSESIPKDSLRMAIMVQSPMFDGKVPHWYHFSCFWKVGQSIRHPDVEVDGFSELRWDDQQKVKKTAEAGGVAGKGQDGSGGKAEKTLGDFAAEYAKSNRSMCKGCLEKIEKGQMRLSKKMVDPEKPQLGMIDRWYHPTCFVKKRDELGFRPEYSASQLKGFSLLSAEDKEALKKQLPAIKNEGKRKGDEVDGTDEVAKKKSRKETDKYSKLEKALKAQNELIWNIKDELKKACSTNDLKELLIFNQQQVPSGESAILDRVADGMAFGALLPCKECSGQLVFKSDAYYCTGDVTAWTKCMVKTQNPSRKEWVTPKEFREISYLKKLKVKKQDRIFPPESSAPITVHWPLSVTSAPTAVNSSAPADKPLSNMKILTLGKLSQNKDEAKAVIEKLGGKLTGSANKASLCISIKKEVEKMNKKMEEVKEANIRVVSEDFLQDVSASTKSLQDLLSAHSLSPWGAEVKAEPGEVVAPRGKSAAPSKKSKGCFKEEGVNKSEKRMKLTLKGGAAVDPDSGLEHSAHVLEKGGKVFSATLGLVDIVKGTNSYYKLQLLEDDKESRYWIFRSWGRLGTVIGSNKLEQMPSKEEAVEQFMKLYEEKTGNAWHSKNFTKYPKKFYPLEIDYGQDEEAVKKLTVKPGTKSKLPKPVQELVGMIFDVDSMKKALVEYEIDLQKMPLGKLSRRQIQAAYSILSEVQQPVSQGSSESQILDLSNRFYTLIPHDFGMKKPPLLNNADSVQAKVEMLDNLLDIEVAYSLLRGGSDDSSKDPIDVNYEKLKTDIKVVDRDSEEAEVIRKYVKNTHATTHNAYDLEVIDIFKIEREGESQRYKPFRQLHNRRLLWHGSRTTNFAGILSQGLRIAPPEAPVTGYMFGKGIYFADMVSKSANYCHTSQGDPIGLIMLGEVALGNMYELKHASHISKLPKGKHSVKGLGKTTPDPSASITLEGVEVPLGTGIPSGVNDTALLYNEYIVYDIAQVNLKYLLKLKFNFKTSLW

PARP-1 activity in CNS CD11b+ cells (PARP-1 [5]; cells isolated at day 55 from AIQ or control-treated mice)	PARP-1 activation in CNS (PAR staining) (PARP-1 [5]; progressive phase of NOD EAE, data not shown)	inhibition of PARP-1 activation by 15-HC (PARP-1 [2]; microglia, macrophages or astrocytes activated with 15-HC)	inhibition of 15-HC-induced PARP-1 enzymatic activity in human PBMCs (PARP-1 [6])	blockade of 15-HC-induced PAR staining (FACS) (PARP-1 [7])	Structure (SMILES)	activation of the nuclear enzyme PARP-1 (PARP-1 [1])	incubation time resulting in activation of PARP-1 (PARP-1 [2]; macrophages or microglia)	clinical signs of progressive EAE [3, 8]	effect on the acute phase of EAE [3, 8]	axonal loss (Bielschowsky's silver staining) [3, 9]	demyelination (luxol fast blue) [3, 9]	proliferative recall response of splenocytes (splenocytes; activation with MOG35-55 or antibodies to CD3)	profile of cytokine secretion of splenocytes (splenocytes; supernatants at 48 h, IFN-gamma, IL-17, IL-10, TGF-beta)	inhibition of 15-HC-induced secretion of NO, CCL-2 and TNF-α [4]
					CC(C)CCC[C@@H](C)[C@H]1CC[C@H]2[C@@H]3C(=O)C=C4C[C@@H](O)CC[C@]4(C)[C@H]3CC[C@]12C [7-KC, 7-ketocholesterol, reference compound]	activate	longer incubation times were required							
inhibition	decreased	could be inhibited	can be inhibited	could be blocked	Nc1cccc2c(=O)[nH]ccc12 [AIQ, 5-aminoisoquinolinone]			significant inhibition	little or no effect	significant decrease; also recorded: significantly reduced	significant decrease; also recorded: significantly reduced	No statistical differences	no differences	could be inhibited
